Here are results for five molecules from patent US20200121801A1, “DRUG DELIVERY CONJUGATES CONTAINING UNNATURAL AMINO ACIDS AND METHODS FOR USING” (priority 2012, published 2020).

In data set [1] the target is T1, folate receptors (FRs) on KB cells (Homo sapiens, UniProt P15328).
T1 construct: FR-positive KB cells are heavily seeded into 24-well cell culture plates; endogenous in cells; host or cells: KB cells
The data set can be described thus: Relative affinity assay (3H-folic acid competition) on KB cells. The class given is binding. The settings on record: folic acid = 1; in 10% serum/FDRPMI. How it is done:
METHOD. Relative Affinity Assay. The affinity for folate receptors (FRs) relative to folate is determined according to a previously described method (Westerhof, G. R., J. H. Schornagel, et al. (1995) Mol. Pharm. 48: 459-471) with slight modification. Briefly, FR-positive KB cells are heavily seeded into 24-well cell culture plates and allowed to adhere to the plastic for 18 h. Spent incubation media is replaced in designated wells with folate-free RPMI (FFRPMI) supplemented with 100 nM ^3H-folic acid in the absence and presence of increasing concentrations of test article or folic acid. Cells are incubated for 60 min at 37° C. and then rinsed 3 times with PBS, pH 7.4. Five hundred microliters of 1% SDS in PBS, pH 7.4, is added per well. Cell lysates are then collected and added to individual vials containing 5 mL of scintillation cocktail, and then counted for radioactivity. Negative control tubes contain only the ^3H-folic acid in FFRPMI (no competitor). Positive control tubes contain a final concentration of 1 mM folic acid, and CPMs measured in these samples (representing non-specific binding of label) are subtracted from all samples.

For the next data set, the system named is KB cells (FR+). It is filed as cell-based, Human. How it is done: METHOD. Inhibition of Cellular DNA Synthesis. The compounds described herein are evaluated using an in vitro cytotoxicity assay that predicts the ability of the drug to inhibit the growth of folate receptor-positive cells, such as KB cells, RAW264.7 macrophages, and the like. It is to be understood that the choice of cell type can made on the basis of the susceptibility of those selected cells to the drug that forms the conjugate. The test compounds are comprised of folate linked to a respective chemotherapeutic drug, as prepared according to the processes described herein. The test cells are exposed to varying concentrations of folate-drug conjugate, and also in the absence or presence of at least a 100-fold excess of folic acid to assess activity as being specific to folate receptor mediation.
EXAMPLE. Conjugates of cytotoxic drugs described herein are active against KB cells. The activity is mediated by the folate receptor as indicated by competition experiments using co-administered folic acid. KB cells are exposed for up to 7 h at 37° C. to the indicated concentrations of folate-drug conjugate in the absence or presence of at least a 100-fold excess of folic acid. The cells are then rinsed once with fresh culture medium and incubated in fresh culture medium for 72 hours at 37° C. Cell viability was assessed using a ^3H-thymidine incorporation assay.
METHOD. In vitro activity against various cancer cell lines. IC50 values are generated for various cell lines. Cells are heavily seeded in 24-well Falcon plates and allowed to form nearly confluent monolayers overnight. Thirty minutes prior to the addition of the test compound, spent medium is aspirated from all wells and replaced with fresh folate-deficient RPMI medium (FFRPMI). A subset of wells are designated to receive media containing 100 μM folic acid. The cells in the designated wells are used to determine the targeting specificity. Without being bound by theory it is believed herein that the cytotoxic activity produced by test compounds in the presence of excess folic acid, i.e. where there is competition for FR binding, corresponds to the portion of the total activity that is unrelated to FR-specific delivery. Following one rinse with 1 mL of fresh FFRPMI containing 10% heat-inactivated fetal calf serum, each well receives 1 mL of medium containing increasing concentrations of test compound (4 wells per sample) in the presence or absence of 100 μM free folic acid as indicated. Treated cells are pulsed for 2 h at 37° C., rinsed 4 times with 0.5 mL of media, and then chased in 1 mL of fresh medium up to 70 h. Spent medium is aspirated from all wells and replaced with fresh medium containing 5 μCi/mL ^3H-thymidine. Following a further 2 h 37° C. incubation, cells are washed 3 times with 0.5 mL of PBS and then treated with 0.5 mL of ice-cold 5% trichloroacetic acid per well. After 15 min, the trichloroacetic acid is aspirated and the cell material solubilized by the addition of 0.5 mL of 0.25 N sodium hydroxide for 15 min. A 450 μL aliquot of each solubilized sample is transferred to a scintillation vial containing 3 mL of Ecolume scintillation cocktail and then counted in a liquid scintillation counter. Final results are expressed as the percentage of ^3H-thymidine incorporation relative to untreated controls.

The test system of another data set is KB tumors. The data set can be described thus: Inhibition of tumor growth, s.c. KB tumors in nu/nu mice. The class given is in vivo. Also noted: key to In vivo activity (e): CR = complete response, where tumor volume, as defined herein, during the observation period was zero for all test animals in the group. How it is done:
METHOD. Inhibition of Tumor Growth in Mice. […] For tumor cell inoculation, 1×10^6 M109 cells (a syngeneic lung carcinoma) in Balb/c strain, or 1×10^6 KB cells in nu/nu strain, in 100 μL are injected in the subcutis of the dorsal medial area (right axilla).
METHOD. Toxicity as Measured by Weight Loss. The percentage weight change of the test animals is determined on selected days post-tumor inoculation (PTI), and during dosing. The results are graphed.

The nature of data set [2]: Cytotoxicity of unconjugated tubulysins to cells in culture. It is filed as cell-based. The following applies: cells in culture (cell line not given); read-out: typical IC50, cytotoxic to cells in culture.
A short description of data set [3]: Pharmacokinetic biodistribution of 3H-EC1669 and 3H-methotrexate. The class given is in vivo, Balb/c mice. How it is done: METHOD. Pharmacokinetic biodistribution. Studies in this section included a minimum of 3 test animals (mice) per time point. The pharmacokinetic biodistribution of test compound, such as ^3H-EC1669 (label on the drug), compared to positive control, such as ^3H-methotrexate (^3H-MTX), is observed in female Balb/c mice on folate-deficient diet. Compounds are administered as a single subcutaneous (SC) injection at 500 nmol/kg. Whole blood (>300 μL) along with ˜100 mg each of various tissues of interests are collected at various time points (such as 10 min, 30 min, 1 h, 2 h, 4 h, 8 h, 12 h, 24 h, and 72 h). The blood samples are placed in BD microtainer tubes (heparin) and centrifuged (4,000 g×3 min, 4° C.) to separate plasma (>100 μL). The remaining red blood cell (RBC) mass is washed 2× with phosphate buffered saline (PBS, pH 7.4) to obtain RBCs. The collected tissues are weighed and processed to determine ^3H-EC1669 and ^3H-MTX distribution: plasma, RBC, heart, lung, liver (the smallest lobe), spleen, kidney (1), intestine (above cecum), fecal material (from colon), muscle, and brain.

A short description of data set [4]: Renal/hepatic secretion study. The following applies: 24 h post-dose, s.c. It is filed as in vivo, mice. How it is done:
In a subsequent renal/hepatic secretion study, mice are housed in metabolic cages with a 6-h fast before subcutaneous administration of ^3H-EC1669 or ^3H-MTX. At 24 h post-dose, ˜14% more radioactivity is found in the pooled urine of ^3H-EC1669 dosed animals than in ^3H-MTX dosed animals. In contrast, twice as much radioactivity was found in the pooled feces of ^3H-MTX dosed animals than in EC1669 dosed animals. […] MTX reportedly causes hepatotoxicity as a major side effect, especially after long-term use. Without being bound by theory, it is believed herein that the preferential renal clearance of the compounds described herein will lead to fewer side effects such as hepatotoxicity.

Data set [5] relates to KB-CR2000 (cisplatin resistant) tumors. The data set can be described thus: Cisplatin-resistant KB-CR2000 tumor model. The class given is in vivo, mice. The settings on record: cisplatin 3 mg/kg twice per week, 2 weeks.
Setting [6] is: 1.0 μmol/kg (only 2 doses due to toxicity), TIW, 2 weeks.
Setting [7] is: 10 min post-dose, 500 nmol/kg s.c.

Where two headings read alike, the source gives them in different places. Some results are limits rather than exact numbers.

T1 sequence (P15328 25-234): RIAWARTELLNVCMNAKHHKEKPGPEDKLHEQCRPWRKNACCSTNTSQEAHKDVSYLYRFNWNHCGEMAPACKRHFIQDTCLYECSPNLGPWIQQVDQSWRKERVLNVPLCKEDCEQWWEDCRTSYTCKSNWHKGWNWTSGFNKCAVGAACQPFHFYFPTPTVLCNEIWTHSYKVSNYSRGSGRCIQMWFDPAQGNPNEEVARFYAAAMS

Take `CCCC(=O)OCN(C(=O)[C@@H](NC(=O)[C@H]1CCCCN1C)C(C)CC)C(C[C@@H](OC(C)=O)c1nc(C(=O)N[C@@H](Cc2ccc(O)cc2)C[C@H](C)C(=O)NNC(=O)OCCSSC[C@@H](NC(=O)[C@@H](CC(=O)O)NC(=O)[C@H](CC(=O)O)NC(=O)[C@H](CCCNC(=N)N)NC(=O)[C@H](CC(=O)O)NC(=O)CC[C@H](NC(=O)c2ccc(NCc3cnc4nc(N)[nH]c(=O)c4n3)cc2)C(=O)O)C(=O)O)cs1)C(C)C` (stereo partly drawn) [EC1549]: the “Relative Affinity (a) compared to folic acid” value in data set [1] came out at 0.90. Further, the “In vitro specificity (fold) (d)” value with KB cells (FR+) (IC50 competed group vs non-competed group) turned out to be 78 fold. Moreover, the IC50 in the data set on KB cells (FR+) (IC50 for test compound when competed with excess folic acid, read-out: 50% competition (nM) (c)) stood at 350 nM; in the data set on KB cells (FR+) (as determined by thymidine incorporation, read-out: In vitro IC50 (nM) (b)), 4.5 nM. The “In vivo activity (e)” value in the data set on KB tumors (subcutaneous KB tumor in nu/nu mice) is reported as “CR”.

With `CCCC(=O)OCN(C(=O)[C@@H](NC(=O)[C@H]1CCCCN1C)C(C)CC)[C@H](C[C@@H](OC(C)=O)c1nc(C(=O)N[C@@H](Cc2ccc(O)cc2)C[C@H](C)C(=O)NN)cs1)C(C)C` (stereo partly drawn) [TubB-H, reference compound], the IC50 in data set [2] is approximately 1 nM. Further, in the data set with KB tumors (setting [6]), the CR came out at 0%, the Cures is on record as 0%, the PR came out at 0% and the “Toxicity: Avg. Weight Loss” value is recorded as more than 15%. Moreover, the “Toxicity: Deaths” value in the data set with KB tumors (setting [6]) was determined as 20%.

Take `N=c1[nH]c(N)nc2ncc(CNc3ccc(C(=O)N[C@@H](CCC(=O)NNC(=O)OCCSSC[C@@H](NC(=O)[C@H](CCC(=O)NC[C@H](O)[C@@H](O)[C@H](O)[C@H](O)CO)NC(=O)[C@@H](CCC(=O)O)NC(=O)[C@H](CCC(=O)NC[C@H](O)[C@@H](O)[C@H](O)[C@H](O)CO)NC(=O)[C@@H](CCC(=O)O)NC(=O)[C@H](CCC(=O)NC[C@H](O)[C@@H](O)[C@H](O)[C@H](O)CO)NC(=O)CC[C@H](NC(=O)c4ccc(NCc5cnc6nc(N)[nH]c(=O)c6n5)cc4)C(=O)O)C(=O)O)C(=O)O)cc3)nc12` [^3H-EC1669]: in data set [3] (female, Balb/c, mouse, plasma, sc, total radioactivity, 10 min post-dose, 500 nmol/kg s.c., read-out: found in the plasma), the tissue uptake at 10 min was found to be 12 %ID/g. For the same molecule, the “more radioactivity in pooled urine than in 3H-MTX dosed animals” value in data set [4] is approximately 14%.

Turning to `CN(Cc1cnc2nc(N)nc(N)c2n1)c1ccc(C(=O)N[C@@H](CCC(=O)O)C(=O)O)cc1` [^3H-MTX, ^3H-methotrexate], in data set [3] (setting [7]), the “captured by the liver” value is given as 31 % ID/g and the “found in the plasma” value is on record as 5.2 % ID/g. Besides, the “retention in RBCs, spleen, liver, intestine, and feces” value in data set [3] (entire sampling period) is on record as “consistently higher than that of ^3H-EC1669”. In data set [4], the “radioactivity in pooled feces vs EC1669 dosed animals” value is on record as “twice as much”.

As for `N.N.[Cl][Pt][Cl]` [cisplatin, reference compound], the “partial response (PR)” value in data set [5] was “did not produce even a single partial response”.
